Reference: ChEMBL document CHEMBL3638529, “Spiro-oxindole MDM2 antagonists” (2015)

These molecules were tested against E3 ubiquitin-protein ligase Mdm2 (Homo sapiens, UniProt Q00987) (assay: Fluorescence-Polarization Binding Assay: The binding affinity of the MDM2 inhibitors was determined using an optimized, sensitive and quantitative fluorescence polarization-based (FP-based) binding assay using a recombinant human His-tagged MDM2 protein (residues 1-118) and a fluorescently tagged p53-based peptide.The design of the fluorescence probe was based upon a previously reported …).
Sequence of E3 ubiquitin-protein ligase Mdm2 (Q00987 whole entry, the tested form may be a part): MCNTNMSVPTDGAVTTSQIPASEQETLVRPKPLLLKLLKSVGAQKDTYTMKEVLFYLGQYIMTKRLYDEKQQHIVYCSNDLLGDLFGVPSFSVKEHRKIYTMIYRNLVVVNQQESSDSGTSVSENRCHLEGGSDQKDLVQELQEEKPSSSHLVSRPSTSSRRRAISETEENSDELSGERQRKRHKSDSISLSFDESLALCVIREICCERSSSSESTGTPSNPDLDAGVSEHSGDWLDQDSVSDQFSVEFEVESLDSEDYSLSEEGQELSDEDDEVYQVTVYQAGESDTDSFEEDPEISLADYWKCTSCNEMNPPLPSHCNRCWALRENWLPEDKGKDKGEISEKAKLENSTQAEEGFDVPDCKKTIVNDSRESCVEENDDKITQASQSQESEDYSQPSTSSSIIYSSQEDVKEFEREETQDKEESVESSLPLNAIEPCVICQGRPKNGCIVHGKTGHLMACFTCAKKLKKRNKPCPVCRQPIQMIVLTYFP
Description: The assay was performed in the buffer: 100 mM potassium phosphate, pH 7.5; 100 ug/mL bovine gamma globulin; 0.02% sodium azide, 0.01% Triton X-100).

SMILES | IC50 [nM]
CC(C)(C)C[C@H]1N[C@@H](C(=O)NCC[C@H]2CC[C@H](NS(C)(=O)=O)C2)[C@H](c2cccc(Cl)c2F)[C@@]12C(=O)Nc1cc(Cl)c(F)cc12 | < 1000
CC(C)(C)C[C@H]1N[C@@H](C(=O)NCC[C@H]2CC[C@H](N)C2)[C@H](c2cccc(Cl)c2F)[C@@]12C(=O)Nc1cc(Cl)c(F)cc12 | < 1000
CC(C)(C)C[C@H]1N[C@@H](C(=O)NCCCNS(C)(=O)=O)[C@H](c2cccc(Cl)c2F)[C@@]12C(=O)Nc1cc(Cl)c(F)cc12 | < 1000
CC(C)(C)C[C@H]1N[C@@H](C(=O)NCCNS(C)(=O)=O)[C@H](c2cccc(Cl)c2F)[C@@]12C(=O)Nc1cc(Cl)c(F)cc12 | < 1000
